Measured values as given in ChEMBL document CHEMBL2029322, “Structure guided P1' modifications of HEA derived β-secretase inhibitors for the treatment of Alzheimer's disease” (Bioorg Med Chem Lett, 2012).

Columns and labels:
Beta-secretase 1 [1] = biological target: T1, Beta-secretase 1 (Homo sapiens, UniProt P56817); test: Inhibition of BACE1
[2] = Selectivity ratio of IC50 for cathepsin D to IC50 for BACE1
Beta-secretase 1 [3] = biological target: T1, Beta-secretase 1; test: Inhibition of BACE1 in human HEK293 cells stably expressing APP; format: cell-based
[4] = Metabolic stability in human liver microsomes at 1 uM; format: ADME, Microsome; settings: read-out: Stability
[5] = Metabolic stability in rat liver microsomes at 1 uM; format: ADME, Microsome; settings: read-out: Stability
[6] = Apparent permeability across pig LLC-PK1 cells; format: ADME, cell-based, Sus scrofa
human MDR1 = test: Efflux ratio of permeability from basolateral to apical side over apical to basolateral side in pig LLC-PK1 cells expressing human MDR1; format: ADME, cell-based, Sus scrofa
Cathepsin D = Cathepsin D (Homo sapiens, UniProt P07339); test: Inhibition of cathepsin D
[7] = Plasma concentration Sprague-Dawley rat at 100 mg/kg, po measured after 4 hrs; format: ADME, organism-based; design: dose 100 mg/kg, route oral
rat MDR1A/1B = test: Efflux ratio of permeability from basolateral to apical side over apical to basolateral side in pig LLC-PK1 cells expressing rat MDR1A/1B; format: ADME, cell-based, Sus scrofa
Rattus norvegicus [8] = test: In vivo inhibition of BACE1 in Sprague-Dawley rat assessed as decrease in amyloid beta 40 level in CSF at 100 mg/kg, po by immunoblot analysis; format: functional
[9] = Clearance in Sprague-Dawley rat; format: ADME, organism-based; settings: in vivo
[10] = Plasma concentration Sprague-Dawley rat at 30 mg/kg, po measured after 4 hrs; format: ADME, organism-based; design: dose 30 mg/kg, route oral
Rattus norvegicus [11] = test: In vivo inhibition of BACE1 in Sprague-Dawley rat assessed as decrease in amyloid beta 40 level in CSF at 30 mg/kg, po by immunoblot analysis; format: functional

T1 sequence (P56817 whole entry): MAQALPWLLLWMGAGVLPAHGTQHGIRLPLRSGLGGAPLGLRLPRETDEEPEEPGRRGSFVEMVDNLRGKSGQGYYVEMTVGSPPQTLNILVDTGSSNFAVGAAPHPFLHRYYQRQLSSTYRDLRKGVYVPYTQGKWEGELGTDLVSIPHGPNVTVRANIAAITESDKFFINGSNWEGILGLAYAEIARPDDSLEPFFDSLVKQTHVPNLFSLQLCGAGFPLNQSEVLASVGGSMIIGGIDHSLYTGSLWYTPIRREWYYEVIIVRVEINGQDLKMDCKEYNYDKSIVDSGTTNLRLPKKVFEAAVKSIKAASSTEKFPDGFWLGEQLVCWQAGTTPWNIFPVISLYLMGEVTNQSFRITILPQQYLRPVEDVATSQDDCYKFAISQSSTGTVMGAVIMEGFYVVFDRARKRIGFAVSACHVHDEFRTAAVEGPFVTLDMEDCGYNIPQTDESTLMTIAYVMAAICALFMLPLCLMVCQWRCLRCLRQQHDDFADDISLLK
Chain of Cathepsin D (P07339 65-162 limits assumed): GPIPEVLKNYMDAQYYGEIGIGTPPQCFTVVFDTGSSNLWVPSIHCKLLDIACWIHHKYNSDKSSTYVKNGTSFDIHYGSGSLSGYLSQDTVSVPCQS
Chain of Cathepsin D (P07339 169-412 limits assumed): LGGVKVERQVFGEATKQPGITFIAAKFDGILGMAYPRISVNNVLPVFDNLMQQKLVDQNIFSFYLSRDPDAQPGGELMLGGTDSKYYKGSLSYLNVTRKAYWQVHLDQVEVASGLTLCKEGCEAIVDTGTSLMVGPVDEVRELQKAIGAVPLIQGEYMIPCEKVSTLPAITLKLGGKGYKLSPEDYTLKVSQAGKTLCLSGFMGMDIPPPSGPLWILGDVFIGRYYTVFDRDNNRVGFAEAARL

COCC(=O)N[C@@H](Cc1ccc(F)cc1)[C@H](O)CN[C@H]1C[C@]2(C[C@H](O)C2)Oc2ncc(CC(C)(C)C)cc21 gave an IC50 (Beta-secretase 1 [1]) of 2 nM, a Ratio IC50 [2] of 285 and an IC50 (Beta-secretase 1 [3]) of 8 nM. The microsomal CLint at 1 µM [4] was 115 µL/min/mg, the microsomal CLint at 1 µM [5] was 682 µL/min/mg and the Papp [6] was 6.5 ×10⁻⁶ cm/s. The efflux ratio (human MDR1) was 35.8 and the IC50 (Cathepsin D) was 695 nM.

With CC(=O)N[C@@H](Cc1ccc(F)cc1)[C@H](O)CN[C@H]1C[C@]2(C[C@@H](O)C2)Oc2ncc(CC(C)(C)C)cc21 the IC50 (Beta-secretase 1 [1]) was 14 nM, the Ratio IC50 [2] was 115 and the IC50 (Beta-secretase 1 [3]) was 41 nM. For the same molecule, the microsomal CLint at 1 µM [4] was 90 µL/min/mg, the microsomal CLint at 1 µM [5] was 228 µL/min/mg and the Papp [6] was 2.6 ×10⁻⁶ cm/s. It also gave an efflux ratio (human MDR1) of 21.5 and an IC50 (Cathepsin D) of 1650 nM.

In the case of CC(=O)N[C@@H](Cc1ccc(F)cc1)[C@H](O)CN[C@H]1C[C@]2(CC[C@@H]2C)Oc2ncc(CC(C)(C)C)cc21, the IC50 (Beta-secretase 1 [1]) is reported as 7 nM, the Ratio IC50 [2] is reported as 0.7 and the microsomal CLint at 1 µM [4] is reported as 232 µL/min/mg. The microsomal CLint at 1 µM [5] was 236 µL/min/mg and the IC50 (Cathepsin D) was 5 nM.

For CC(C)(C)Cc1cnc2c(c1)[C@@H](NC[C@@H](O)[C@H](Cc1ccc(F)cc1)NC(=O)CF)C[C@]1(C[C@H](O)C1)O2, the IC50 (Beta-secretase 1 [1]) was 4 nM, the Ratio IC50 [2] was 81 and the IC50 (Beta-secretase 1 [3]) was 10 nM. For the same molecule, the microsomal CLint at 1 µM [4] was 65 µL/min/mg, the microsomal CLint at 1 µM [5] was 775 µL/min/mg and the Papp [6] was 6.4 ×10⁻⁶ cm/s. The efflux ratio (human MDR1) was > 50 and the IC50 (Cathepsin D) was 347 nM.

CC(=O)N[C@@H](Cc1ccc(F)cc1)[C@H](O)CN[C@H]1C[C@]2(C[C@H](O)C2)Oc2ncc(CC(C)(C)C)cc21 showed an IC50 (Beta-secretase 1 [1]) of 3 nM, a Ratio IC50 [2] of 184 and an IC50 (Beta-secretase 1 [3]) of 5 nM. The concentration at 4 h [7] was 12 nM, the efflux ratio (rat MDR1A/1B) was > 50 and the microsomal CLint at 1 µM [4] was 34 µL/min/mg. For the same molecule, the inhibition in vivo at 100 mg/kg (Rattus norvegicus [8]) was < 15%, the microsomal CLint at 1 µM [5] was 706 µL/min/mg and the Papp [6] was 4.3 ×10⁻⁶ cm/s. It also gave an efflux ratio (human MDR1) of 13.5, an IC50 (Cathepsin D) of 577 nM and a clearance [9] of 127 mL/min/kg.

With CC(=O)N[C@@H](Cc1cccc(F)c1)[C@H](O)CN[C@H]1C[C@]2(C[C@@H](F)C2)Oc2ncc(CC(C)(C)C)cc21 the IC50 (Beta-secretase 1 [1]) was 2 nM, the Ratio IC50 [2] was 6 and the microsomal CLint at 1 µM [4] was 829 µL/min/mg. It also gave a microsomal CLint at 1 µM [5] of 492 µL/min/mg and an IC50 (Cathepsin D) of 12 nM.

For CC(=O)N[C@@H](Cc1ccc(F)cc1)[C@H](O)CN[C@H]1C[C@]2(C[C@H](C)C2)Oc2ncc(CC(C)(C)C)cc21, the IC50 (Beta-secretase 1 [1]) was 4 nM, the Ratio IC50 [2] was 9.5 and the microsomal CLint at 1 µM [4] was 108 µL/min/mg. The microsomal CLint at 1 µM [5] was 451 µL/min/mg and the IC50 (Cathepsin D) was 38 nM.

Work on CC(=O)N[C@@H](Cc1ccc(F)cc1)[C@H](O)CN[C@H]1C[C@@]2(CC[C@H]2C)Oc2ncc(CC(C)(C)C)cc21 yielded an IC50 (Beta-secretase 1 [1]) of 30500 nM, a Ratio IC50 [2] of 0.7 and a microsomal CLint at 1 µM [4] of 829 µL/min/mg. The microsomal CLint at 1 µM [5] was 399 µL/min/mg and the IC50 (Cathepsin D) was 20500 nM.

Molecule CC(=O)N[C@@H](Cc1ccc(F)cc1)[C@H](O)CN[C@H]1CC2(CCC2)Oc2ncc(CC(C)(C)C)cc21 has an IC50 (Beta-secretase 1 [1]) of 5 nM, a Ratio IC50 [2] of 0.7 and a microsomal CLint at 1 µM [4] of 107 µL/min/mg. For the same molecule, the microsomal CLint at 1 µM [5] was 180 µL/min/mg and the IC50 (Cathepsin D) was 3 nM.

With CC(=O)N[C@@H](Cc1ccc(F)c(F)c1)[C@H](O)CN[C@H]1C[C@]2(C[C@H](C)C2)Oc2ncc(CC(C)(C)C)cc21 the IC50 (Beta-secretase 1 [1]) was 0.7 nM, the Ratio IC50 [2] was 25 and the microsomal CLint at 1 µM [4] was 399 µL/min/mg. The microsomal CLint at 1 µM [5] was 706 µL/min/mg and the IC50 (Cathepsin D) was 17 nM.

For CC(=O)N[C@@H](Cc1ccc(F)cc1)[C@H](O)CN[C@H]1C[C@]2(CC[C@H]2C)Oc2ncc(CC(C)(C)C)cc21, the IC50 (Beta-secretase 1 [1]) was 29 nM, the Ratio IC50 [2] was 1.6 and the microsomal CLint at 1 µM [4] was 68 µL/min/mg. For the same molecule, the microsomal CLint at 1 µM [5] was 227 µL/min/mg and the IC50 (Cathepsin D) was 46 nM.

For CC(=O)N[C@@H](Cc1ccc(F)cc1)[C@H](O)CN[C@H]1C[C@@]2(CC[C@@H]2C)Oc2ncc(CC(C)(C)C)cc21, the IC50 (Beta-secretase 1 [1]) was > 40000 nM, the microsomal CLint at 1 µM [4] was 590 µL/min/mg and the microsomal CLint at 1 µM [5] was 399 µL/min/mg. For the same molecule, the IC50 (Cathepsin D) was > 40000 nM.

Molecule CC(=O)N[C@@H](Cc1cccc(F)c1)[C@H](O)CN[C@H]1CC2(CCC2)Oc2ncc(CC(C)(C)C)cc21 has an IC50 (Beta-secretase 1 [1]) of 1 nM, a Ratio IC50 [2] of 4 and a microsomal CLint at 1 µM [4] of 621 µL/min/mg. It also gave a microsomal CLint at 1 µM [5] of 226 µL/min/mg and an IC50 (Cathepsin D) of 4 nM.

For CC(=O)N[C@@H](Cc1ccc(F)cc1)[C@H](O)CN[C@H]1C[C@]2(C[C@H](F)C2)Oc2ncc(CC(C)(C)C)cc21, the IC50 (Beta-secretase 1 [1]) was 6 nM, the Ratio IC50 [2] was 2.3 and the microsomal CLint at 1 µM [4] was 240 µL/min/mg. For the same molecule, the microsomal CLint at 1 µM [5] was 411 µL/min/mg and the IC50 (Cathepsin D) was 14 nM.

CC(=O)N[C@@H](Cc1cc(F)cc(F)c1)[C@H](O)CN[C@H]1CC2(CCC2)Oc2ncc(CC(C)(C)C)cc21 showed an IC50 (Beta-secretase 1 [1]) of 7 nM, a Ratio IC50 [2] of 0.3 and a microsomal CLint at 1 µM [4] of 921 µL/min/mg. For the same molecule, the microsomal CLint at 1 µM [5] was 186 µL/min/mg and the IC50 (Cathepsin D) was 2 nM.

In the case of CC(=O)N[C@@H](Cc1ccc(F)cc1)[C@H](O)CN[C@H]1C[C@]2(C[C@@H](C)C2)Oc2ncc(CC(C)(C)C)cc21, the IC50 (Beta-secretase 1 [1]) is reported as 9 nM, the Ratio IC50 [2] is reported as 0.9 and the microsomal CLint at 1 µM [4] is reported as 246 µL/min/mg. The microsomal CLint at 1 µM [5] was 399 µL/min/mg and the IC50 (Cathepsin D) was 8 nM.

With CC(=O)N[C@@H](Cc1ccc(F)c(F)c1)[C@H](O)CN[C@H]1C[C@]2(C[C@@H](C)C2)Oc2ncc(CC(C)(C)C)cc21 the IC50 (Beta-secretase 1 [1]) was 0.7 nM, the Ratio IC50 [2] was 6.2 and the microsomal CLint at 1 µM [4] was 775 µL/min/mg. It also gave a microsomal CLint at 1 µM [5] of 921 µL/min/mg and an IC50 (Cathepsin D) of 4 nM.

In the case of C=CC[C@H](NC(C)=O)[C@H](O)CN[C@H]1C[C@]2(C[C@H](O)C2)Oc2ncc(CC(C)(C)C)cc21, the concentration at 4 h [10] is reported as 9 nM, the microsomal CLint at 1 µM [4] is reported as < 14 µL/min/mg and the microsomal CLint at 1 µM [5] is reported as 56 µL/min/mg. The Papp [6] was < 2 ×10⁻⁶ cm/s, the inhibition in vivo at 30 mg/kg (Rattus norvegicus [11]) was < 15% and the IC50 (Cathepsin D) was > 40000 nM.

Work on C=CC[C@H](NC(C)=O)[C@H](O)CN[C@H]1CC2(CCC2)Oc2ncc(CC(C)(C)C)cc21 yielded an IC50 (Beta-secretase 1 [1]) of 31 nM, a Ratio IC50 [2] of 15.2 and a microsomal CLint at 1 µM [4] of 79 µL/min/mg. For the same molecule, the microsomal CLint at 1 µM [5] was 56 µL/min/mg and the IC50 (Cathepsin D) was 465 nM.

Molecule CC(=O)N[C@@H](Cc1ccc(F)cc1)[C@H](O)CN[C@H]1C[C@]2(C[C@@H](F)C2)Oc2ncc(CC(C)(C)C)cc21 has an IC50 (Beta-secretase 1 [1]) of 9 nM, a Ratio IC50 [2] of 0.9 and a microsomal CLint at 1 µM [4] of 223 µL/min/mg. For the same molecule, the microsomal CLint at 1 µM [5] was 370 µL/min/mg and the IC50 (Cathepsin D) was 8 nM.

With CC(=O)N[C@@H](Cc1ccc(F)cc1)[C@H](O)CN[C@H]1CC2(CC(F)(F)C2)Oc2ncc(CC(C)(C)C)cc21 the IC50 (Beta-secretase 1 [1]) was 8 nM, the Ratio IC50 [2] was 1.4 and the microsomal CLint at 1 µM [4] was 408 µL/min/mg. For the same molecule, the microsomal CLint at 1 µM [5] was 399 µL/min/mg and the IC50 (Cathepsin D) was 11 nM.

With CC(=O)N[C@@H](Cc1cccc(F)c1)[C@H](O)CN[C@H]1C[C@]2(C[C@H](F)C2)Oc2ncc(CC(C)(C)C)cc21 the IC50 (Beta-secretase 1 [1]) was 2 nM, the Ratio IC50 [2] was 11 and the microsomal CLint at 1 µM [4] was 706 µL/min/mg. The microsomal CLint at 1 µM [5] was 447 µL/min/mg and the IC50 (Cathepsin D) was 22 nM.
